Laboratory results reported in US9777045B2, “Immunogenic compositions and methods” (Longhorn Vaccines and Diagnostics, LLC, priority 2007, dated 2017).
“And” between values parts separate entries of the source, which are not always exact repeats. Equal entries are not always repeated.

Tests used:
[1] = system: live Wuhan (Influenza A/Wuhan/359/95, H3N2); assay: ELISA for anti-Wuhan antibodies (mouse sera 1:100); format: in vivo, mice; conditions: sera 1:100; for Absorbance values for individual sera tested on influenzavirus strain Wuhan, Pre: mice, pre-bleed; for Anti-Wuhan Absorbance Day 42 (group average) / Anti-Wuhan Absorbance Pre-Bleed (group average): averaged results
[2] = system: peptide corresponding to the peptide-BSA conjugate used for injection; assay: ELISA for anti-peptide antibodies (individual mouse sera 1:100); format: in vivo, mice; conditions: for Average Absorbance Values of sera for tested peptides, Day 14 / Average Absorbance Values of sera for tested peptides, Day 29 / Average Absorbance Values of sera for tested peptides, Day 42 / Average Absorbance Values of sera for tested peptides, Pre: group average; for Average Absorbance Values of sera for tested peptides, Day 14 / Average Absorbance Values of sera for tested peptides, Day 29 / Average Absorbance Values of sera for tested peptides, Day 42 / Average Absorbance Values of sera for tested peptides, Pre / Individual absorbancy values of sera for tested peptides, Day 14 / Individual absorbancy values of sera for tested peptides, Day 29 / Individual absorbancy values of sera for tested peptides, Day 42: mice; for Average Absorbance Values of sera for tested peptides, Pre / Individual absorbancy values of sera for tested peptides, Pre: pre-bleed; for Individual absorbancy values of sera for tested peptides, Pre: mice injected with peptide-BSA conjugate, absorbance 450 nm; for Individual absorbancy values of sera for tested peptides, Pre / Individual absorbancy values of sera for tested peptides, Day 14 / Individual absorbancy values of sera for tested peptides, Day 29 / Individual absorbancy values of sera for tested peptides, Day 42: sera 1:100
Method: Individual sera were tested at a final dilution of 1:100 (in PBS-T) on Nunc Maxisorp® plates coated with the peptide corresponding to the peptide-BSA conjugate used for injection, at a concentration of 1 μg/ml in PBS (100 μl/well). One hundred microliters of diluted sera were reacted on the coated plate for 30 to 60 min at room temperature, and unbound material was removed by washing three times with PBS-T. Anti-peptide antibodies were detected with peroxidase-labeled goat anti-mouse IgG (γ-specific), diluted 1:10000 in PBS-T (100 μl/well; Jackson ImmunoResearch Laboratories, Inc., West Grove, Pa., USA). Following 30-min incubation, the wells were washed five times with PBS-T to removed unbound material and 100 μl of substrate (TMB; Kirkegaard & Perry Laboratories, Inc., Gaithersburg, Md., USA) was added to each well. The reaction was allowed to proceed for 15 min in the dark and stopped by addition of 100 μl of TMB Stop Solution per well (Kirkegaard & Perry). Absorbance was determined at 450 nm.

[3] = system: Influenza H1N1, H3N2, and H5N1; conditions: in vivo
[4] = system: IL-4 induction in splenocytes; format: cell-based; conditions: mice immunized with peptide-BSA conjugates; 72 h in vitro treatment

Sequence: GNLFIAPGNLFIAPQYIKANSKFIGITEGNLFIAP [Peptide 5907]
- Absorbance values for individual sera tested on influenzavirus strain Wuhan, Pre ([1]; 5 μg per injection): 0.084 and 0.062 and 0.068 and 0.063
- Absorbance values for individual sera tested on influenzavirus strain Wuhan, Pre ([1]; 20 μg per injection): 0.097 and 0.102 and 0.071 and 0.091
- Anti-Wuhan Absorbance Day 42 (individual mice) ([1]; dose per inject 5 μg): 0.212 and 0.082 and 0.250 and 0.039
- Anti-Wuhan Absorbance Pre-Bleed (individual mice) ([1]; dose per inject 5 μg): 0.084 and 0.062 and 0.068 and 0.063
- Anti-Wuhan Absorbance Day 42 (individual mice) ([1]; dose per inject 20 μg): 0.394 and 0.174 and 0.119 and 0.224
- Anti-Wuhan Absorbance Pre-Bleed (individual mice) ([1]; dose per inject 20 μg): 0.087 and 0.102 and 0.071 and 0.091
- Anti-Wuhan Absorbance Day 42 (group average) ([1]; dose per injection 5 μg): 0.146
- Anti-Wuhan Absorbance Pre-Bleed (group average) ([1]; dose per injection 5 μg): 0.069
- Anti-Wuhan Absorbance Day 42 (group average) ([1]; dose per injection 20 μg): 0.227
- Anti-Wuhan Absorbance Pre-Bleed (group average) ([1]; dose per injection 20 μg): 0.088
- Average Absorbance Values of sera for tested peptides, Day 14 ([2]; 5 μg per injection): 0.077
- Average Absorbance Values of sera for tested peptides, Day 29 ([2]; 5 μg per injection): 0.107
- Average Absorbance Values of sera for tested peptides, Day 42 ([2]; 5 μg per injection): 0.134
- Average Absorbance Values of sera for tested peptides, Pre ([2]; 5 μg per injection): 0.078
- Average Absorbance Values of sera for tested peptides, Day 14 ([2]; 20 μg per injection): 0.080
- Average Absorbance Values of sera for tested peptides, Day 29 ([2]; 20 μg per injection): 0.097
- Average Absorbance Values of sera for tested peptides, Day 42 ([2]; 20 μg per injection): 0.165
- Average Absorbance Values of sera for tested peptides, Pre ([2]; 20 μg per injection): 0.083
- Individual absorbancy values of sera for tested peptides, Pre ([2]; 5 μg per injection): 0.080 and 0.073 and 0.084 and 0.075
- Individual absorbancy values of sera for tested peptides, Pre ([2]; 20 μg per injection): 0.065 and 0.077 and 0.082 and 0.108
- Individual absorbancy values of sera for tested peptides, Day 14 ([2]; 5 μg per injection): 0.096 and 0.061 and 0.079 and 0.073
- Individual absorbancy values of sera for tested peptides, Day 29 ([2]; 5 μg per injection): 0.160 and 0.098 and 0.099 and 0.071
- Individual absorbancy values of sera for tested peptides, Day 42 ([2]; 5 μg per injection): 0.165 and 0.099 and 0.139
- Individual absorbancy values of sera for tested peptides, Day 14 ([2]; 20 μg per injection): 0.069 and 0.072 and 0.088 and 0.090
- Individual absorbancy values of sera for tested peptides, Day 29 ([2]; 20 μg per injection): 0.073 and 0.080 and 0.141 and 0.093
- Individual absorbancy values of sera for tested peptides, Day 42 ([2]; 20 μg per injection): 0.114 and 0.161 and 0.230 and 0.156
- immune response against Influenza H1N1, H3N2, and H5N1 [3]: raises an immune response
- IL-4 response of spleen cell supernatants (in words) [4]: below the result of the untreated control
